Reference: PMC10855164, “Ligand-Based Design of Selective Peptidomimetic uPA and TMPRSS2 Inhibitors with Arg Bioisosteres” (International Journal of Molecular Sciences, 2024)

Experiments:
[1] = target: T1, factor Xa (Homo sapiens, UniProt P00742); assay: colorimetric enzyme inhibition assay, factor Xa (Z-D-Arg-Gly-Arg-pNA); type: biochemical; details: quotient Ki factor Xa / Ki TMPRSS2, from cited Ki values (ref 29)
T1 construct: purchased Bio-techne
Description: (§1) The inhibitory activity of the synthesized compounds towards the respective main- and off-target proteases was measured via fluorometric and colorimetric assays. Thus, fluorogenic AMC- or colorimetric pNA-based substrates with a peptide sequence suitable for the tested protease were utilized (see Supplementary Figure S2). At first, the compounds were screened against […] proteases (uPA, TMPRSS2, matriptase, tPA, thrombin, factor Xa) at 20 µM, and a cut-off value of 80% inhibition at this concentration was set, for the differentiation between nonactive (n.a.) and active inhibitors. Due to the reversible inhibition mechanism of the ketobenzothiazole derivates, the IC50 values were determined with Graphpad Prism 9, and afterwards converted to the corresponding Ki values for an adequate comparison between the inhibitory activities of the compounds toward all tested proteases. The Ki values were calculated using the Cheng–Prusoff equation [43].
(§2) Fluorometric inhibition assays
(§3) The inhibitory activities of the compounds against the proteases were determined by enzyme inhibition assays with fluorogenic or colorimetry-based substrates. The fluorescence, caused by cleaved AMC from the fluorogenic substrates (uPA, matriptase, TMPRSS2, thrombin), was measured in white flat-bottom 96-well plates from Greiner Bio-One using a Tecan Infinite F200 Pro plate reader. The absorption, caused by cleaved pNA from colorimetric substrates (factor Xa and tPA), was measured in transparent flat-bottom 96-well plates from Greiner Bio-One using a Tecan Spark 10M plate reader. All measurements with the main-target proteases (uPA and TMRPSS2) were performed as triplicates and with the off-target proteases (matriptase, factor Xa, tPA, thrombin) as duplicates. The substrates and the compounds were prepared as stock solutions in DMSO. Each well contained a total volume of 200 µL, consisting of 185 µL buffer, 5 µL inhibitor in DMSO or pure DMSO as negative control, 5 µL substrate in DMSO and 5 µL enzyme solution in buffer. Dilution series were prepared for the determination of the inhibition constants. The fluorescence signal and absorbance were measured every 30 s for 10 min at 25 or 37 °C with the corresponding excitation/emission (λex = 380 nm / λem = 460 nm) and absorbance (λabs = 405 nm) wavelengths, depending on the targeted protease. IC50 values for the reversible inhibitors were calculated with Graphpad Prism 9 by fitting the remaining enzymatic activity to the four parameter IC50 equation with Y [%] as the residual enzyme activity , Ymax as the maximum value of the dose response curve at inhibitor concentrations [I] = 0 µM, Ymin as the minimum value at high inhibitor concentrations and s as the hill coefficient.[1] The fluorescence progress curves and sigmoidal dose-response curve for inhibition of uPa by compound 38 is shown exemplary in Figure S2. […]
(§4) Due to the dependence of the IC50 value on the substrate affinity and concentration, the Ki values were calculated with the Cheng-Prusoff equation, using the final substrate concentration [S] and the Michaelis-Menten constant KM, (2) for appropriate comparison of the inhibitory activities to the other enzymes and inhibitors.[1]
(§5) KM values were determined by fitting to the Michaelis-Menten equation using Graphpad Prism 9 with v [ΔF/min] as the substrate hydrolysis rate, vmax as the maximum slope of the dose-response curve, and the substrate [S] concentration.[1] The different substrates were serially diluted in DMSO. The measurement was done in analogy to the determination of the inhibitory activity, but with 5 µL pure DMSO instead of inhibitor solution. […]
(§6) The following buffers and substrates were used for the respective assays: uPA (50 mM Tris HCl pH = 7.9, 150 mM […]
(§7) TMPRSS2 (25 mM Tris HCl pH = 8.0, 150 mM NaCl, 5 mM CaCl2, 0.001% TX-100, 100 µM Boc-Gln-Ala-Arg-AMC (KM: 68.63 ± 6.64 µM), 25 °C, 3 nM TMPRSS2)[3]; matriptase (50 mM Tris HCl pH = 8.0, 150 mM NaCl, 5 mM CaCl2, […]

[2] = target: T2, thrombin (Homo sapiens, UniProt P00734); set-up: method as in PMID 35804152; details: published inhibitor; cited from earlier work
T2 construct: purchased Bio-techne

[3] = target: T2, thrombin; assay: fluorometric enzyme inhibition assay, thrombin (Z-Gly-Gly-Arg-AMC); type: biochemical; details: quotient Ki thrombin / Ki TMPRSS2, from cited Ki values (ref 29)
Description: as §1, §2, §3, §4, §5, §6, §7

[4] = target: T3, matriptase (Homo sapiens, UniProt Q9Y5Y6); set-up: method as in PMID 35804152; details: published inhibitor; cited from earlier work
T3 construct: catalytic domain of matriptase (uniport: Q9Y5Y6 aa 596–855); hexa-histidine (N); made in house; host or cells: Escherichia coli BL21 Gold (DE3)
T3 sequence (Q9Y5Y6 596-855): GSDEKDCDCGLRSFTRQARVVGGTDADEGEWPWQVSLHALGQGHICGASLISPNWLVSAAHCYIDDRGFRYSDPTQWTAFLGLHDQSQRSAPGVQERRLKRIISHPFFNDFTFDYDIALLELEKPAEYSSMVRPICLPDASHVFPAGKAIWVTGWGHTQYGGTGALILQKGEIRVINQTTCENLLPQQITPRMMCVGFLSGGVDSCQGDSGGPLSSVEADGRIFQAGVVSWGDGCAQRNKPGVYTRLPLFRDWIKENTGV

[5] = target: T4, TMPRSS2 (Homo sapiens, UniProt O15393); set-up: method as in PMID 35804152; details: published inhibitor; cited from earlier work
T4 construct: purchased Cusabio

[6] = target: T3, matriptase; assay: fluorometric enzyme inhibition assay, matriptase (Boc-Leu-Arg-Arg-AMC); type: biochemical; details: quotient Ki matriptase / Ki TMPRSS2, from cited Ki values (ref 29)
Description: as §1, §2, §3, §4, §5, §6, §7

[7] = target: T1, factor Xa; set-up: method as in PMID 35804152; details: published inhibitor; cited from earlier work

T1 sequence (P00742 235-488 limits assumed): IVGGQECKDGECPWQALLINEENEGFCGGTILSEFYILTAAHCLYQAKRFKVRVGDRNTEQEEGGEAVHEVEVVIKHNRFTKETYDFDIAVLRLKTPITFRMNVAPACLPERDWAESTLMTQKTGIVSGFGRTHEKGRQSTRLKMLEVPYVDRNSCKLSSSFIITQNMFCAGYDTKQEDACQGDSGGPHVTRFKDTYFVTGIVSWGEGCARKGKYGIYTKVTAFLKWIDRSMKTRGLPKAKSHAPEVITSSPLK
T1 sequence (P00742 41-179 partner limits assumed): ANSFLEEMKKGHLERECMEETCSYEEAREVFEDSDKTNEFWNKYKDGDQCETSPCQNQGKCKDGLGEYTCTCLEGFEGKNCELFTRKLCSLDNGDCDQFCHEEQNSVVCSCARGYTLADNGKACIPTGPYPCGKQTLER
T4 sequence (O15393 whole entry): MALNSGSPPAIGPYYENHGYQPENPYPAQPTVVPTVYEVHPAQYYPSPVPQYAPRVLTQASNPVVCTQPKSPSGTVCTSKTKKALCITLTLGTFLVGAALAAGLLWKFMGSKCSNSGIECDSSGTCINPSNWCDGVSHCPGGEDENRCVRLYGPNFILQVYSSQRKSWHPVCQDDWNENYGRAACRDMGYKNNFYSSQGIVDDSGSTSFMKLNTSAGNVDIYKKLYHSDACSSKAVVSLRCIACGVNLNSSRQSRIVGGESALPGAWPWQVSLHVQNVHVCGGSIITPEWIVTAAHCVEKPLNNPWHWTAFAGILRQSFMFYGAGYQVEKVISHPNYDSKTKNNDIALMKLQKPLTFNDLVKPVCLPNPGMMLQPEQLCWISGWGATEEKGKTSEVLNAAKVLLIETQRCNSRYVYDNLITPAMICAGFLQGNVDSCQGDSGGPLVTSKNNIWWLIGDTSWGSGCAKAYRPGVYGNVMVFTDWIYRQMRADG

For `CC(=O)N[C@@H](CC(N)=O)C(=O)N1CCC[C@H]1C(=O)N[C@@H](CCCNC(=N)N)C(=O)c1nc2ccccc2s1` [Ac-L-Asn-L-Pro-L-Arg-kbt], the “Selectivity index [SI] Factor Xa” value [1] is given as 16, the Ki [2] is given as 1.05 µM and the “Selectivity index [SI] Thrombin” value [3] is given as 418. The Ki [4] was 0.0052 µM, the Ki [5] was 0.0025 µM and the “Selectivity index [SI] Matriptase” value [6] was 2. For the same compound, the Ki [7] was 0.0411 µM.
